Laboratory results taken from patent publication US20110184178A1, “POLYMORPHS OF 5-(3-(ETHYLSULFONYL)PHENYL)-3,8-DIMETHYL-N-(1-METHYLPIPERIDIN-4-YL)-9H-PYRIDO[2,3-B]INDOLE-7-CARBOXAMIDE AND METHODS OF USE THEREFOR” (Takeda Pharmaceutical Company Limited, priority 2008, published 2011).
Where two headings read alike, the source gives them in different places.

How the values were obtained:
Type in all cases: physicochemical
[1] = Solubility study of Form A in de-ionized water and 20 mM phosphate buffer at pH 3.2 (HPLC, XRPD of solids); details: for solubility at 1 week: ambient temperature, read-out: Solubility mg/mL (1 week); for solubility at 1 day: read-out: Solubility mg/mL (1 day)
Protocol: Solubility was determined for Form A of Compound I by suspending the material in de-ionized water and 20 mM phosphate buffer at pH 3.2 and ambient temperature. Approximately 40 mg of Form A of Compound I was charged to 2-dram amber vials equipped with magnetic stir bars, followed by the addition of DI water or phosphate buffer (2.0 mL) in one portion. The samples were allowed to equilibrate with stirring for 16 h, followed by centrifugation. An aliquot of the supernatant liquid was analyzed by HPLC, and the solids isolated by filtration and dried under vacuum at ambient temperature for analysis by XRPD. Samples were allowed to stir for an additional 6 days and concentration determined by HPLC.

[2] = Moisture-sorption analysis (gravimetric adsorption/desorption, 25° C.)
Protocol: Further, the material gained enough water to form the dihydrate in approximately 45 minutes at 30% RH during adsorption and lost enough water to form the anhydrate at 15% RH during desorption in less than 60 minutes. […] The sample was further allowed to equilibrate at ambient laboratory conditions overnight and reanalyzed by XRPD. […] The moisture sorption experiment of Form C of Compound I provides a curve similar to the Form A curve (FIG. 11). […] Further, the material gained enough water to form the dihydrate in less than 60 minutes at 30% RH during adsorption and lost enough water to form the anhydrate at 15% RH during desorption in approximately 80 minutes. […] Moisture-sorption experiments were carried out on all samples by first drying the sample at 0% RH and 25° C. until an equilibrium weight was reached or for a maximum of four hours. The sample was then subjected to an isothermal (25° C.) adsorption scan from 10 to 90% RH in steps of 10%. Samples were then allowed to equilibrate to an asymptotic weight at each point for a maximum of four hours. Following adsorption, a desorption scan from 85 to 0% RH (at 25° C.) was run in steps of −10% again allowing a maximum of four hours for equilibration to an asymptotic weight. Samples were dried for one hour at 80° C. and the resulting solids analyzed by XRPD.

[3] = Humidity chamber study of Form A (XRPD, Karl Fischer); details: ambient temperature and 0% RH for one week
From the text: A sample of Form A was exposed to ambient temperature and 0% RH for one week.

[4] = Slurry experiments (form by XRPD after slurrying in a solvent); details: Form A in dioxane slurry
Protocol: 50 to 60 mg of Form A of Compound I was weighed out into 2 dram amber vials and the material was slurried in 2 mL of a solvent. The slurry experiments were carried out at either ambient temperature or at 40° C. Samples were obtained from slurries after one day, one week, and two weeks. Tables 15 and 16 detail the results of the slurry experiments.

[5] = DSC heat-cool experiments with isothermal holds to isolate high-melt forms
Protocol: Differential scanning calorimetry (DSC) analyses were carried out on samples weighed in an aluminum pan, covered with a pierced lid, and then crimped. Analysis conditions were 30° C. to 300-350° C. ramped at 10° C./min. Samples were subjected to heat-cool-heat experiments to determine if a unique form or interconversion could be observed. Compound I was prepared by thoroughly mixing Form A lots with stirring by spatula and tumbling the powders for several minutes in a scintillation vial. Experiments were setup as described in Tables 17 and 18 with isothermal holds for five minutes at temperatures slightly below/above the observed transitions to encourage conversion/ripening. Similarly, controlled cooling profiles (−5° C./min) were used to help promote crystal growth as opposed to quench cooling which may result in amorphous or kinetically favored forms instead of the stable form.

[6] = Physical characterization of the polymorphs and salt (XRPD, DSC, TGA, 1H-NMR, KF, moisture sorption): stability assessment; details: solid form
Protocol: Described herein are Form A, Form B, Form C, Form D, Form E, Form F and Form G of Compound I. Various tests were performed in order to physically characterize the polymorphs of Compound I, including X-ray powder diffraction (XRPD), differential scanning calorimetry (DSC), thermogravimetric analysis (TGA), solution proton nuclear magnetic resonance (^1H-NMR), and moisture sorption and desorption analysis (M S/Des). Detailed experimental conditions for each of the analytical techniques are described in the Examples section. […] A summary of these experiments and the results are presented below and in Table 12.

[7] = solids isolated from DI water suspension
[8] = solids isolated from phosphate buffer suspension, pH 3.2
[9] = 30-280° C. @ 10° C./min, hold 280° C. for 5 min, 280-30° C. @ -5° C./min
[10] = 30-290° C. @ 10° C./min, hold 290° C. for 5 min, 290-30° C. @ -5° C./min

pH, 1 week ([1]; DI water suspension, pH (initial) 6.9): 7.2
pH, 1 week ([1]; Phosphate buffer suspension, pH (initial) 3.2): 3.4
solubility at 1 week ([1]; aqueous buffer, thermodynamic from solid, Phosphate buffer (20 mM), pH (initial) 3.2, pH 3.4 at 1 week): < 0.1 mg/mL
solubility at 1 day ([1]; de-ionized water, pH 6.9, thermodynamic from solid, DI water, pH (initial) 6.9, ambient temperature): < 0.1 mg/mL
solubility at 1 week ([1]; de-ionized water, thermodynamic from solid, DI water, pH (initial) 6.9, pH 7.2 at 1 week): < 0.1 mg/mL
solubility at 1 day ([1]; pH 3.2, aqueous buffer, thermodynamic from solid, Phosphate buffer (20 mM), pH (initial) 3.2, ambient temperature): < 0.1 mg/mL
XRPD (1 week) [1, 7]: Form A
XRPD (1 day) [1, 7]: Form A
XRPD (1 week) [1, 8]: Form A
XRPD (1 day) [1, 8]: Form A
XRPD analysis of the solid following the desorption scan [2]: consistent with Form C
time to lose enough water to form the anhydrate ([2]; at 15% RH during desorption): less than 60 minutes
time to gain enough water to form the dihydrate ([2]; at 30% RH during adsorption): approximately 45 minutes
hydration state in the moisture sorption experiment ([2]; during both adsorption and desorption, 25° C.): stable dihydrate above 20% RH
XRPD after equilibration at ambient laboratory conditions overnight ([2]; sample after desorption scan): re-converted to Form A
Karl Fischer (KF) analysis results before and after the one week equilibration [3]: comparable
XRPD after one week in humidity chamber [3]: consistent with Form A
XRPD pattern of dioxane slurry [4]: mixture of Form A and Form D
1H NMR (degradation) [5, 9]: No degradation
XRPD [5, 9]: Form F
1H NMR (degradation) [5, 10]: No degradation
XRPD [5, 10]: Form G
stability (based on the available characterization data) [6]: stable at ambient conditions
SMILES: CCS(=O)(=O)c1cccc(-c2cc(C(=O)NC3CCN(C)CC3)c(C)c3[nH]c4ncc(C)cc4c23)c1 [Compound I Form A, 5-(3-(ethylsulfonyl)phenyl)-3,8-dimethyl-N-(1-methylpiperidin-4-yl)-9H-pyrido[2,3-b]indole-7-carboxamide]
